Results taken from publication PMC12431657, “Discovery and mechanistic insights of dibenzoylmethane as a broad spectrum inhibitor of coronavirus” (PLOS Pathogens, 2025).
Several values for one entry are separate records, joined by “and”; a condition that tells them apart may be missing. Equal entries are not always repeated.

System: HCoV-OC43
Test: Time-of-addition assay
Type: cell-based
Settings: for time-of-addition, viral inhibition: replicates
Description: To obtain further insight into the stage at which DBM inhibits the replication of HCoV-OC43 and other HCoVs, RD cells were incubated with compounds, including DBM, remdesivir (RDV), and chloroquine (CQ), at different stages of viral infection. Viral RNA from the supernatant was extracted and quantitatively analysed via qRT-PCR. […] For the viral binding assay, cells were cultured in the presence or absence of DBM at different concentrations for 1 hour before being infected with HCoV-OC43 at an MOI of 50, and then were placed on ice for 2 hours for the viral particles to bind to the membrane of the host cells, followed by washing with PBS. […] In addition to binding to receptors from host cells, the spike proteins of HCoV-OC43 could also trigger membrane fusion when HCoV-OC43 spike plasmid-transfected 293T cells were seeded together with RD cells as target cells, and the addition of DBM had no effect on this process (S5C Fig). To examine whether DBM inhibits viral internalisation, cells were inoculated with HCoV-OC43 for 1 hour on ice before being treated with either DBM or DMSO, and CQ was included to prevent endosomal acidification. Subsequently, HCoV-OC43 nucleocapsid proteins were immunostained with CoraLite Plus 488 to assess viral internalisation via confocal microscopy. […] To determine whether DBM influences viral release, we quantified viral RNA both intracellularly and in the supernatant.
To evaluate the effects of DBM on the life cycle of HCoV-229E and HCoV-OC43, fresh culture medium containing 0.6 μM DBM, 0.1 μM remdesivir (RDV), or 10 μM chloroquine (CQ) was supplemented with preseeded cells at different time points relative to infection (entry group: 0 to –2 hours; postinfection group: 2–12 hours; and full-time group: 0 to –12 hours). DMSO served as the control. At 24 hours postinfection, the number of intracellular virus RNA copies was quantified by qRT-PCR as previously described.

O=C(CC(=O)c1ccccc1)c1ccccc1 [DBM, dibenzoylmethane]
time-of-addition, viral inhibition (Entry): 44.1 and 45.1 and 75.5 | time-of-addition, viral inhibition (Full-Time): 98.8 and 98.7 (2×) | time-of-addition, viral inhibition (Post-Entry): 79.3 and 93.6 and 93.3 | HCoV-OC43 infection, compound incubated before and during virus infection (RD cells, 0.6 μM DBM): did not significantly inhibit | replication of HCoV-OC43, compound added 2 hours after virus inoculation (RD cells, 0.6 μM DBM): potently inhibited
